This note sets out measurements from BindingDB's records for doi:10.1038/nchembio.2168 (Novartis Institutes, 2016).

In experiment [1] the target is T1, Serine/threonine-protein kinase WNK1 [1-491] (Homo sapiens, UniProt Q9H4A3).
T1 construct: 1-491
In words: In vitro MBP Phosphorylation Assay (MBP). Conditions: pH 7.3; 25 °C. As to the method:
(§1) Each well of the MBP-coated ScintiPlates held 100 ul of a solution containing 20 mM HEPES pH 7.3, 5 mM MnCl2 (WNK1 and WNK4) or 3 mM MnCl2 (WNK2 and WNK3), 0.01% Tween-20 (WNK1, WNK3 and WNK4) or 0.02% Tween-20 (WNK2), 1 mM TCEP, 2% DMSO, 1 uM ATP (WNK1, WNK3 and WNK4) or 2 uM ATP (WNK2), 1 uCi [gamma-33P]ATP (WNK1, WNK2, WNK4) or 0.25 uCi [gamma-33P]ATP (WNK3), WNK kinase enzyme (5 nM WNK1, 10 nM WNK2, 5 nM WNK3 or 10 nM WNK4) and compound at the desired concentration. The plate was sealed with a clear adhesive cover and mixed for 20 s at 800 r.p.m. on a bench top plate shaker. The plate was then placed in a 25 °C shaking incubator at 175 r.p.m for 3 h (WNK1 and WNK4), 2 h (WNK3) or 1 h (WNK2). The kinase reaction was stopped by the addition of 50 ul of 45 mM EDTA, 0.01% Tween-20, and 20 mM HEPES, pH 7.3. The content of each well was then aspirated, and the well was washed three times with 300 ul of 150 mM NaCl, 0.02% Tween-20, and 50 mM Tris-HCl pH 7.4. Incorporation of 33P into the bound MBP substrate was measured using a MicroBeta TriLux LSC and Luminescence plate counter.

Experiment [2] concerns the target T2, Serine/threonine-protein kinase WNK1 [1-434] (Homo sapiens, UniProt Q9H4A3).
T2 construct: 1-434
In words: In vitro MBP Phosphorylation Assay (MBP). Conditions: pH 7.3; 25 °C. As to the method:
as §1

For experiment [3], the target named is T3, Serine/threonine-protein kinase WNK1 [1-444] (Homo sapiens, UniProt Q9H4A3).
T3 construct: 1-444
T3 sequence (Q9H4A3 1-444): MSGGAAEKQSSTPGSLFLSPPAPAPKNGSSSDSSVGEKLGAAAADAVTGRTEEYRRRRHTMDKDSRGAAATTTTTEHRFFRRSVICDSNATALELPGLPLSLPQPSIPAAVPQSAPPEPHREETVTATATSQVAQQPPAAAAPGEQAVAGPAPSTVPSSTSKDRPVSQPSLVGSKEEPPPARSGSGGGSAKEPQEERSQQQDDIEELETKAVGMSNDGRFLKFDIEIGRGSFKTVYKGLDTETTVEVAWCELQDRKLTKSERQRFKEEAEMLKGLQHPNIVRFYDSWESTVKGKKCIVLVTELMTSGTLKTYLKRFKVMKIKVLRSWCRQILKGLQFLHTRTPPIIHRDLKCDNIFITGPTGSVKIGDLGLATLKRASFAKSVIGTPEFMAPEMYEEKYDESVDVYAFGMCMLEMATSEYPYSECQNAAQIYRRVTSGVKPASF
In words: In vitro MBP Phosphorylation Assay (MBP). Conditions: pH 7.3; 25 °C. As for the experimental part:
as §1

Experiment [4] concerns the target T4, Serine/threonine-protein kinase WNK1 [166-489] (Homo sapiens, UniProt Q9H4A3).
T4 construct: 166-489
In words: In vitro MBP Phosphorylation Assay (MBP). Conditions: pH 7.3; 25 °C. As for the experimental part:
as §1

Experiment [5] has as its target T1, Serine/threonine-protein kinase WNK1 [1-491]. In words: In vitro OSR1 Phosphorylation Assay (OSR1). Conditions: pH 7.3; 4 °C. As for the experimental part: 0.2 nM GST-hWNK1(1-491) (Carna Biosciences, cat# 05-179); 3.5 ug/ml GST-OSR1; 20 mM HEPES; 0.01% Tween; 5 mM MnCl2; 1 mM TCEP; 2% DMSO; 0.5 uM ATP, pH 7.3 (total volume 40 ul) were incubated for 15 min at room temperature. Samples were […] mixed with Laemmli sample buffer and resolved on a 10% Tris-glycine gel, and transferred to nitrocellulose. Membranes were blocked in 5% non-fat milk dissolved in Tris-buffered saline with tween (TBST) for 30 min, washed 3x for 10 min in TBST and incubated with phospho-OSR1 antibody (1:1,000; see Reagents section) at […] overnight. Blots were again washed with TBST and incubated with HRP-conjugated anti-rabbit IgG (1:2,500; catalog # 7074, Cell Signaling) at room temperature for 30 min. Blots were again washed and developed with SuperSignal West Femto Maximum Sensitivity Chemiluminescent Substrate for HRP (Thermo Scientific), and quantified with a Fujifilm LAS-3000 Luminescent Image Analyzer.

T1 sequence (Q9H4A3 1-491): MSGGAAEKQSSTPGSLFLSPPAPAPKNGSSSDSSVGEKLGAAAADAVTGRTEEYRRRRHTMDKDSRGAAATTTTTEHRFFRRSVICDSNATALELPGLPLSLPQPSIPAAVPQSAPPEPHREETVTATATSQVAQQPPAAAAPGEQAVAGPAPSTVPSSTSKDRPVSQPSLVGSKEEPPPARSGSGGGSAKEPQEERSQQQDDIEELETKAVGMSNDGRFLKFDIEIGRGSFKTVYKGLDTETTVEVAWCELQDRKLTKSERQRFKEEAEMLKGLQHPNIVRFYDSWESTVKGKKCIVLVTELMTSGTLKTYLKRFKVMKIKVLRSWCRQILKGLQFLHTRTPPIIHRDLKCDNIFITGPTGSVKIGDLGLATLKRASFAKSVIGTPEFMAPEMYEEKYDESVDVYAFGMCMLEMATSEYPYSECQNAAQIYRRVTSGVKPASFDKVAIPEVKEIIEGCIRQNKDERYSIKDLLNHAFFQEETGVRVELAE
T2 sequence (Q9H4A3 1-434): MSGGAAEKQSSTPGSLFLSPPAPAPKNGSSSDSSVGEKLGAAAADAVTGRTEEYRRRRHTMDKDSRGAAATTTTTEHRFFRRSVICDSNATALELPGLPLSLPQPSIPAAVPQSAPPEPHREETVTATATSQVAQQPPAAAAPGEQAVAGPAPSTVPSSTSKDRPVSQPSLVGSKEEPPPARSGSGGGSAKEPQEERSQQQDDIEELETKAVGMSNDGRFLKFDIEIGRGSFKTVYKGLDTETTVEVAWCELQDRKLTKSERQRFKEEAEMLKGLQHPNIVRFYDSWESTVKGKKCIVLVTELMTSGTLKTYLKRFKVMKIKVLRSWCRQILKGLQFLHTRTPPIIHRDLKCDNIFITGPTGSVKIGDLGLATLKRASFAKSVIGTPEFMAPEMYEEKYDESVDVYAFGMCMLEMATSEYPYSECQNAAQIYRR
T4 sequence (Q9H4A3 166-489): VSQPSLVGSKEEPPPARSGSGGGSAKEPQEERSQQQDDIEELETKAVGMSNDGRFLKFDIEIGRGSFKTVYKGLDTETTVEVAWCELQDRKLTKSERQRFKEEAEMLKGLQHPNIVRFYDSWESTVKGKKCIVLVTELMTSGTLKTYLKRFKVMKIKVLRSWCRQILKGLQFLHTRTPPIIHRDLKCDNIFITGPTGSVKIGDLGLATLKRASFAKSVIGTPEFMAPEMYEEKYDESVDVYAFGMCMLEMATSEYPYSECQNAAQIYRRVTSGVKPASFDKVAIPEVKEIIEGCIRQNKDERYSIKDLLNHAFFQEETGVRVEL

As to `COc1ccc(CC(=O)N2CCC(n3cncc3C(=O)NCCc3ccccc3)C2)cc1` [(R)-1-(1-(2-(4-methoxyphenyl)acetyl)pyrrolidin-3-yl)-N-phenethyl-1H-imidazole-5-carboxamide (1)], the IC50 in experiment [1] was determined as 856 nM.
As for `CC(C)(C)NC(=O)c1cncn1C1CCN(c2ccc(-c3nnc(C(F)(F)F)o3)cc2)CC1` [WNK463 (2)], the IC50 worked out at 6 nM in experiment [2]; 9 nM in experiment [3]; 5 nM in experiment [1]; 1 nM in experiment [4]; 41 nM in experiment [5].

The IC50 is the concentration that gives 50% inhibition.
